ChEMBL document CHEMBL1201861, “Genomics of Drug Sensitity in Cancer screening data, Wellcome Trust Sanger Institute”

Columns and labels:
Assay in all cases: cells
Conditions in all cases: Homo sapiens
[1] = tested on: COLO-829; type: functional, cell-based
Description: SANGER: Inhibition of human COLO-829 cell growth in a cell viability assay.

[2] = tested on: DJM-1; type: functional, cell-based;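 also: growth inhibition of human DJM-1 cells, read out by a cell viability assay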
Description: SANGER: Inhibition of human DJM-1 cell growth in a cell viability assay.

[3] = tested on: DK-MG; type: functional, cell-based;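 also: growth inhibition of DK-MG cells, read out with a cell viability assay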
Description: SANGER: Inhibition of human DK-MG cell growth in a cell viability assay.

[4] = tested on: ES8; type: functional, cell-based;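 also: growth inhibition of human ES8 cells, read out with a cell viability assay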
Description: SANGER: Inhibition of human ES8 cell growth in a cell viability assay.

[5] = tested on: ESS-1; type: functional, cell-based;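 also: growth inhibition of human ESS-1 cells, read out by a cell viability assay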
Description: SANGER: Inhibition of human ESS-1 cell growth in a cell viability assay.

[6] = tested on: EW-18; type: functional, cell-based;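 also: growth inhibition of EW-18 cells, read out by a cell viability assay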
Description: SANGER: Inhibition of human EW-18 cell growth in a cell viability assay.

[7] = tested on: EOL1; type: functional, cell-based;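 also: growth inhibition of EoL-1 cells, read out by a cell viability assay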
Description: SANGER: Inhibition of human EoL-1-cell cell growth in a cell viability assay.

[8] = tested on: GCIY; type: functional, cell-based;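 also: growth inhibition of the human GCIY cell line, read out by a cell viability assay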
Description: SANGER: Inhibition of human GCIY cell growth in a cell viability assay.

[9] = tested on: GI-ME-N; type: functional, cell-based;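 also: growth inhibition of human GI-ME-N cells, read out with a cell viability assay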
Description: SANGER: Inhibition of human GI-ME-N cell growth in a cell viability assay.

[10] = tested on: HAL-01; type: functional, cell-based;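 also: growth inhibition of human HAL-01 cells, read out with a cell viability assay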
Description: SANGER: Inhibition of human HAL-01 cell growth in a cell viability assay.

[11] = tested on: HCC1187; type: functional, cell-based;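 also: growth inhibition of HCC1187 cells, read out with a cell viability assay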
Description: SANGER: Inhibition of human HCC1187 cell growth in a cell viability assay.

[12] = tested on: HCE-4; type: functional, cell-based;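 also: cell viability assay measuring inhibition of growth in the human HCE-4 cell line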
Description: SANGER: Inhibition of human HCE-4 cell growth in a cell viability assay.

[13] = tested on: HCE-T; type: functional, cell-based;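 also: cell viability assay read-out, reporting inhibition of HCE-T cell growth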
Description: SANGER: Inhibition of human HCE-T cell growth in a cell viability assay.

[14] = tested on: HCT-116; type: functional, cell-based
Description: SANGER: Inhibition of human HCT-116 cell growth in a cell viability assay.

[15] = tested on: HH; type: functional, cell-based
Description: SANGER: Inhibition of human HH cell growth in a cell viability assay.

[16] = tested on: HOP-62; type: functional, cell-based;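 also: cell growth inhibition determined with a viability assay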
Description: SANGER: Inhibition of human HOP-62 cell growth in a cell viability assay.

[17] = tested on: IST-SL1; type: functional, cell-based;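 also: growth inhibition of human IST-SL1 cells, read out with a cell viability assay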
Description: SANGER: Inhibition of human IST-SL1 cell growth in a cell viability assay.

[18] = tested on: JVM-2; type: functional, cell-based;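 also: growth inhibition of JVM-2 cells determined by a cell viability assay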
Description: SANGER: Inhibition of human JVM-2 cell growth in a cell viability assay.

[19] = tested on: K5; type: functional, cell-based
Description: SANGER: Inhibition of human K5 cell growth in a cell viability assay.

[20] = tested on: LAN-6; type: functional, cell-based;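 also: growth inhibition of LAN-6 cells, determined with a cell viability assay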
Description: SANGER: Inhibition of human LAN-6 cell growth in a cell viability assay.

[21] = tested on: LB2518-MEL; type: functional, cell-based;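 also: growth inhibition of human LB2518-MEL cells, measured with a cell viability assay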
Description: SANGER: Inhibition of human LB2518-MEL cell growth in a cell viability assay.

[22] = tested on: LS-1034; type: functional, cell-based
Description: SANGER: Inhibition of human LS-1034 cell growth in a cell viability assay.

[23] = tested on: LS-123; type: functional, cell-based
Description: SANGER: Inhibition of human LS-123 cell growth in a cell viability assay.

[24] = tested on: LS-411N; type: functional, cell-based
[25] = tested on: Lu-65; type: functional, cell-based;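 also: growth inhibition of Lu-65 cancer cells, read out by a cell viability assay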
Description: SANGER: Inhibition of human LU-65 cell growth in a cell viability assay.

[26] = tested on: MDA-MB-175-VII; type: functional, cell-based
[27] = tested on: MFH-ino; type: functional, cell-based;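 also: growth inhibition of human MFH-ino cells, read out by a cell viability assay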
Description: SANGER: Inhibition of human MFH-ino cell growth in a cell viability assay.

[28] = tested on: MPP-89; type: functional, cell-based;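 also: growth inhibition of human MPP-89 cells, read out with a cell viability assay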
Description: SANGER: Inhibition of human MPP-89 cell growth in a cell viability assay.

[29] = tested on: NB10; type: functional, cell-based;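 also: growth inhibition of NB10 cells, read out by a cell viability assay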
Description: SANGER: Inhibition of human NB10 cell growth in a cell viability assay.

[30] = tested on: NB6; type: functional, cell-based;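 also: growth inhibition of NB6 cells, read out by a cell viability assay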
Description: SANGER: Inhibition of human NB6 cell growth in a cell viability assay.

[31] = tested on: NCI-H1581; type: functional, cell-based;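 also: cell growth inhibition read out by a viability assay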
Description: SANGER: Inhibition of human NCI-H1581 cell growth in a cell viability assay.

[32] = tested on: NCI-H209; type: functional, cell-based;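 also: growth inhibition of human NCI-H209 cells, measured by a cell viability assay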
Description: SANGER: Inhibition of human NCI-H209 cell growth in a cell viability assay.

[33] = tested on: NCI-H526; type: functional, cell-based;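 also: growth inhibition of the human NCI-H526 cell line, measured by a cell viability assay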
Description: SANGER: Inhibition of human NCI-H526 cell growth in a cell viability assay.

[34] = tested on: NCI-H69; type: functional, cell-based;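 also: growth inhibition of the cell line, read out with a cell viability assay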
Description: SANGER: Inhibition of human NCI-H69 cell growth in a cell viability assay.

[35] = tested on: NCI-H720; type: functional, cell-based;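 also: growth inhibition of human NCI-H720 cells determined by a cell viability assay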
Description: SANGER: Inhibition of human NCI-H720 cell growth in a cell viability assay.

[36] = tested on: NCI-H747; type: functional, cell-based;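 also: growth inhibition of human NCI-H747 cells, read out by a cell viability assay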
Description: SANGER: Inhibition of human NCI-H747 cell growth in a cell viability assay.

[37] = tested on: NKM-1; type: functional, cell-based;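 also: growth inhibition of NKM-1 cells, read out with a cell viability assay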
Description: SANGER: Inhibition of human NKM-1 cell growth in a cell viability assay.

[38] = tested on: NMC-G1; type: functional, cell-based;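 also: growth inhibition of the NMC-G1 cell line, measured with a cell viability read-out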
Description: SANGER: Inhibition of human NMC-G1 cell growth in a cell viability assay.

[39] = tested on: NOS-1; type: functional, cell-based;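 also: growth inhibition of the human NOS-1 cell line, read out with a cell viability assay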
Description: SANGER: Inhibition of human NOS-1 cell growth in a cell viability assay.

[40] = tested on: OVCAR-4; type: functional, cell-based;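 also: growth inhibition of human OVCAR-4 cells, measured with a cell viability assay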
Description: SANGER: Inhibition of human OVCAR-4 cell growth in a cell viability assay.

[41] = tested on: OVCAR-5; type: functional, cell-based;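 also: growth inhibition of human OVCAR-5 cells, read out with a cell viability assay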
Description: SANGER: Inhibition of human OVCAR-5 cell growth in a cell viability assay.

[42] = tested on: P30-OHK; type: functional, cell-based;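 also: growth inhibition of the P30-OHK cell line, read out with a cell viability assay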
Description: SANGER: Inhibition of human P30-OHK cell growth in a cell viability assay.

[43] = tested on: PSN1; type: functional, cell-based;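 also: suppression of growth of human PSN1 cells, read out by a cell viability assay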
Description: SANGER: Inhibition of human PSN1 cell growth in a cell viability assay.

[44] = tested on: QIMR-WIL; type: functional, cell-based;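 also: growth inhibition of QIMR-WIL cells, read out with a cell viability assay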
Description: SANGER: Inhibition of human QIMR-WIL cell growth in a cell viability assay.

[45] = tested on: RPMI-8866; type: functional, cell-based
Description: SANGER: Inhibition of human RPMI-8866 cell growth in a cell viability assay.

[46] = tested on: RS4-11; type: functional, cell-based;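 also: growth inhibition of RS4-11 cells, read out by a cell viability assay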
Description: SANGER: Inhibition of human RS4-11 cell growth in a cell viability assay.

[47] = tested on: SBC-5; type: functional, cell-based;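 also: cell viability assay read-out, IC50 is the concentration that inhibits growth of the cells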
Description: SANGER: Inhibition of human SBC-5 cell growth in a cell viability assay.

[48] = tested on: SCC-15; type: functional, cell-based;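 also: growth inhibition of SCC-15 cells, read out with a cell viability assay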
Description: SANGER: Inhibition of human SCC-15 cell growth in a cell viability assay.

[49] = tested on: SF-268; type: functional, cell-based;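 also: growth inhibition of SF-268 cells determined with a cell viability assay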
Description: SANGER: Inhibition of human SF268 cell growth in a cell viability assay.

[50] = tested on: SHP77; type: functional, cell-based, SHP-77;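 also: growth inhibition of human SHP-77 cells measured by a cell viability assay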
Description: SANGER: Inhibition of human SHP-77 cell growth in a cell viability assay.

[51] = tested on: SJRH30; type: functional, cell-based;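 also: growth inhibition of human SJRH30 cells, read out with a cell viability assay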
Description: SANGER: Inhibition of human SJRH30 cell growth in a cell viability assay.

[52] = tested on: SJSA-1; type: functional, cell-based;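 also: growth inhibition of human SJSA-1 cells, read out through a cell viability measurement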
Description: SANGER: Inhibition of human SJSA-1 cell growth in a cell viability assay.

[53] = tested on: SK-MEL-2; type: functional, cell-based;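 also: growth inhibition of human SK-MEL-2 cells measured with a cell viability assay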
Description: SANGER: Inhibition of human SK-MEL-2 cell growth in a cell viability assay.

[54] = tested on: SNU-C2B; type: functional, cell-based;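 also: cell viability readout used to measure compound-driven suppression of SNU-C2B cell proliferation, IC50 marking half-maximal growth inhibition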
Description: SANGER: Inhibition of human SNU-C2B cell growth in a cell viability assay.

[55] = tested on: SW872; type: functional, cell-based;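 also: growth inhibition of SW872 cells, read out by a viability assay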
Description: SANGER: Inhibition of human SW872 cell growth in a cell viability assay.

[56] = tested on: TE-1; type: functional, cell-based;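 also: growth inhibition of the human TE-1 cell line, read out with a cell viability assay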
Description: SANGER: Inhibition of human TE-1 cell growth in a cell viability assay.

[57] = tested on: A4-Fuk; type: functional, cell-based;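 also: growth inhibition of A4-Fuk cells, read out by a cell viability assay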
Description: SANGER: Inhibition of human A4-Fuk cell growth in a cell viability assay.

[58] = tested on: ACN; type: functional, cell-based
Description: SANGER: Inhibition of human ACN cell growth in a cell viability assay.

[59] = tested on: AM-38; type: functional, cell-based
Description: SANGER: Inhibition of human AM-38 cell growth in a cell viability assay.

[60] = tested on: BHY; type: functional, cell-based
Description: SANGER: Inhibition of human BHY cell growth in a cell viability assay.

[61] = tested on: U2OS; type: functional, cell-based, U-2-OS
Description: SANGER: Inhibition of human U-2-OS cell growth in a cell viability assay.

[62] = tested on: UACC-257; type: functional, cell-based
Description: SANGER: Inhibition of human UACC-257 cell growth in a cell viability assay.

[63] = tested on: CAS-1; type: functional, cell-based
Description: SANGER: Inhibition of human CAS-1 cell growth in a cell viability assay.

[64] = tested on: CHP-212; type: functional, cell-based
Description: SANGER: Inhibition of human CHP-212 cell growth in a cell viability assay.

[65] = tested on: COLO-320-HSR; type: functional, cell-based
Description: SANGER: Inhibition of human COLO-320-HSR cell growth in a cell viability assay.

N#C/C(=C1/Nc2ccccc2S1)c1ccnc(NCCc2cccnc2)n1
IC50 [1]: > 8 µM | IC50 [2]: > 8 µM | IC50 [3]: > 8 µM | IC50 [4]: > 8 µM | IC50 [5]: 6.49 µM | IC50 [6]: > 8 µM | IC50 [7]: 2.49 µM | IC50 [8]: 5.48 µM | IC50 [9]: > 8 µM | IC50 [10]: > 8 µM | IC50 [11]: 1.81 µM | IC50 [12]: > 8 µM | IC50 [13]: 7.35 µM | IC50 [14]: > 8 µM | IC50 [15]: > 8 µM | IC50 [16]: > 8 µM | IC50 [17]: > 8 µM | IC50 [18]: > 8 µM | IC50 [19]: > 8 µM | IC50 [20]: > 8 µM | IC50 [21]: > 8 µM | IC50 [22]: > 8 µM | IC50 [23]: > 8 µM | IC50 [24]: > 8 µM | IC50 [25]: > 8 µM | IC50 [26]: > 8 µM | IC50 [27]: > 8 µM | IC50 [28]: 5.2 µM | IC50 [29]: > 8 µM | IC50 [30]: > 8 µM | IC50 [31]: > 8 µM | IC50 [32]: > 8 µM | IC50 [33]: > 8 µM | IC50 [34]: > 8 µM | IC50 [35]: > 8 µM | IC50 [36]: 6.03 µM | IC50 [37]: 2.31 µM | IC50 [38]: 6.12 µM | IC50 [39]: 5.95 µM | IC50 [40]: 5.7 µM | IC50 [41]: > 8 µM | IC50 [42]: 4.75 µM | IC50 [43]: > 8 µM | IC50 [44]: > 8 µM | IC50 [45]: > 8 µM | IC50 [46]: 3.93 µM | IC50 [47]: 6.89 µM | IC50 [48]: > 8 µM | IC50 [49]: > 8 µM | IC50 [50]: > 8 µM | IC50 [51]: > 8 µM | IC50 [52]: > 8 µM | IC50 [53]: > 8 µM | IC50 [54]: 7.85 µM | IC50 [55]: 1.32 µM | IC50 [56]: > 8 µM | IC50 [57]: > 8 µM | IC50 [58]: > 8 µM | IC50 [59]: > 8 µM | IC50 [60]: > 8 µM | IC50 [61]: > 8 µM | IC50 [62]: > 8 µM | IC50 [63]: > 8 µM | IC50 [64]: > 8 µM | IC50 [65]: > 8 µM

Fc1cc(-c2cc[nH]/c(=N/c3ccc(-n4cnc(N5CCOCC5)n4)cc3)n2)cc(N2CCOCC2)c1
IC50 [1]: 0.52 µM | IC50 [2]: > 5.12 µM | IC50 [3]: > 5.12 µM | IC50 [4]: 0.135 µM | IC50 [5]: 0.659 µM | IC50 [6]: 0.857 µM | IC50 [7]: 0.501 µM | IC50 [8]: 0.129 µM | IC50 [9]: 1.44 µM | IC50 [10]: 0.704 µM | IC50 [11]: 0.594 µM | IC50 [12]: 0.903 µM | IC50 [13]: 2.79 µM | IC50 [14]: 0.164 µM | IC50 [15]: > 5.12 µM | IC50 [16]: 0.248 µM | IC50 [17]: 0.775 µM | IC50 [18]: 3.3 µM | IC50 [19]: 0.83 µM | IC50 [20]: 1.77 µM | IC50 [21]: 0.54 µM | IC50 [22]: 1.92 µM | IC50 [23]: 1.25 µM | IC50 [24]: 0.198 µM | IC50 [25]: 1.66 µM | IC50 [26]: 2.96 µM | IC50 [27]: 1.04 µM | IC50 [28]: 3.82 µM | IC50 [29]: 1.3 µM | IC50 [30]: 0.912 µM | IC50 [31]: 1.34 µM | IC50 [32]: 1.26 µM | IC50 [33]: 0.957 µM | IC50 [34]: 1.18 µM | IC50 [35]: > 5.12 µM | IC50 [36]: 1.05 µM | IC50 [37]: 0.425 µM | IC50 [38]: 1.1 µM | IC50 [39]: 0.307 µM | IC50 [40]: 0.467 µM | IC50 [41]: 0.181 µM | IC50 [42]: 0.299 µM | IC50 [43]: > 5.12 µM | IC50 [44]: 0.343 µM | IC50 [45]: 1.18 µM | IC50 [46]: 0.28 µM | IC50 [47]: 0.398 µM | IC50 [48]: 0.803 µM | IC50 [49]: 0.537 µM | IC50 [50]: 0.825 µM | IC50 [51]: 0.349 µM | IC50 [52]: 0.251 µM | IC50 [53]: 0.631 µM | IC50 [54]: 0.637 µM | IC50 [55]: 0.539 µM | IC50 [56]: > 5.12 µM | IC50 [57]: 0.972 µM | IC50 [58]: 0.0786 µM | IC50 [59]: 1.11 µM | IC50 [60]: 0.51 µM | IC50 [61]: > 5.12 µM | IC50 [62]: 1.24 µM | IC50 [63]: 2.23 µM | IC50 [64]: 0.286 µM | IC50 [65]: 0.518 µM
